Measurements published in PubChem BioAssay (NCI).
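How tested: cells in 96-well plates exposed to compound for 48 hours at five concentrations. Definition used: TGI = concentration required for complete inhibition of growth.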

Columns and labels:
P388 leukemia = assay: NCI tumour cell line growth inhibition, 48 h
P388/ADR leukemia = assay: NCI tumour cell line growth inhibition, 48 h

| Compound | TGI (P388 leukemia) [µM] | TGI (P388/ADR leukemia) [µM] |
| --- | --- | --- |
| Cc1ccc2[nH]c3c(C)c4ccncc4c(C)c3c2c1 | 3.09 | 3.62 |
| Nc1ccn(C2OC(COP(=O)(O)Oc3ccccc3)C(O)C2O)c(=O)n1 (configuration not stated) | 15.7 | > 100 |
| CC(=O)Oc1c(OC(C)=O)c(-c2ccc(O)c(O)c2)c(O)c(O)c1-c1ccc(O)cc1 | – | 50 |
| CN1OC(=O)N(C)C1c1ccccc1 (configuration not stated) | > 100 | > 100 |
